Results: patent publication US10030016B2 (Sunesis Pharmaceuticals, Inc., priority 2009, dated 2018)
Where a name gives a salt, the structure may show the parent alone. Read-outs that look alike come from different tables or passages of the source.

Tests used:
PDK1 = PDK1 (Homo sapiens (Human), UniProt O15530); assay: PDK1 kinase assay (coupled PDK1/AKT/FAM-crosstide assay, IMAP fluorescence polarization); type: biochemical
Description: A PDK1 kinase assay was performed as follows. PDK1 (amino acids 51-359) and AKT2 (amino acids 140-467 fused to PIFtide, amino acids […]) were expressed as N-terminally tagged GST fusion proteins in insect cells and purified to homogeneity. Enzyme activity was determined in a coupled PDK1/AKT/FAM-crosstide assay and phosphorylation of FAM-crosstide was determined by standard IMAP protocol (Molecular Devices). For inhibition studies, compounds were titrated 4-fold in DMSO and diluted 40-fold into assay buffer (10 mM Tris HCl pH7.2; 10 mM MgCl2; 0.01% Triton X-100; 1 mM DTT) containing PDK1, AKT2, and FAM-crosstide (final concentrations: 0.75 nM PDK1, 10 nM unphosphorylated AKT2, and 100 nM crosstide substrate). The kinase reaction was initiated by adding ATP to a final concentration of 40 μM of PDK1 and incubated at 25° C. for 30 min. To detect assay product, the kinase reaction was combined with Progressive Binding Solution (1:600 Progressive Binding Reagent, 50% Buffer A, 50% Buffer B, Molecular Devices) in a 1:3 ratio. The mixture was incubated for 2 hours at 25° C. and the plate was scanned on an Analyst AD with excitation at 485 nm and emission at 530 nm. The fluorescence polarization value “P” is defined by the equation below. The value “mP” is generated by multiplying the P value for each reaction well by a factor of 1000. The value “ΔmP” for each well is the mP value for that well minus the mP value for the average negative control. P=(Fpar−Fperp)/(Fpar+Fperp) Eq.:
Where “par” is fluorescence intensity parallel to the excitation plane; and “perp” is fluorescence intensity perpendicular to the excitation plane. ΔmP values were plotted as a function of compound concentration and the data were analyzed with a 4-parameter fit using GraphPad Prism software.

[1] = system: phospho-akt (Thr308) in PC-3 cells; assay: Inhibition of phospho-akt (Thr308) in PC-3 cells, MSD phospho-akt 308 ELISA kit; type: cell-based; details: 2 hours, no serum, read-out: EC50
Description: PC-3 cells were harvested by trypsin and counted. Cells were plated in coated 96-well flat bottom plates (plate 15,000 cells/well in 100 ul growth media (10% FBS, 1× pen-strep) an place in an incubator overnight.
Subject inhibitors were stocked at 50 mM, then diluted to 30 mM (4.8 μl cpd plus […] DMSO) in 100% DMSO. Three-fold dilutions were performed from 30 mM stock. (4 μl into 8 ul 100% DMSO). Aliquots of 1.0 μl of inhibitor solution were transferred into SF Medium (using deep well block).
Control wells were prepared as follows. For DMSO high controls, 1.0 μl of 100% DMSO was added into 1.0 ml SF. For low controls for PC-3 cells, 5 μM of Wortmannin (10 μl of 1 mM Wortmannin stock was added into 2 ml SF Medium. The supernatant media was removed and the plate was blotted. 100 μl of controls/media or compound/media were added to cells and placed in incubator for 2 hours. The supernatant media was removed and the plate was blotted. 55 μl of the MSD complete lysis buffer was added (10 mls Tris Lysis buffer, 200 ul protease inhibitor, 100 ul phosphatase inhibitor 1, and 100 ul phosphatase inhibitor II). The plate was placed on a plate shaker for 60 mins at 4 deg.
MSD plates were blocked for 1 hour by adding 150 μl of Blocking Solution (3% BSA) to each well. The MSD plates were washed 4× with TBST, and 50 μl lysates were transferred to MSD plate and place on plate shaker shake at 4 degrees O/N, light shaking (speed 3.5). The plate was washed 4× with TBST.
25 μl of Ab detection solution was added to each well. The plate was sealed and incubated 1 hr RT, light shaking (speed 3.5). The plate was washed 4 times with TBST. 150 μl of Read Buffer was added (5 mls 4×MSD Read Buffer+15 mls water). Finally the plate was read immediately on the MSD plate reader.

[2] = inhibition of phospo-PDK1 in vitro
[3] = Homo sapiens, inhibition of P308 Akt in PC-3 cells, MSD
[4] = Homo sapiens, inhibition of P308 Akt in PC-3 cells using MSD
[5] = Homo sapiens, PC-3, 2 h, inhibition of P308 Akt in PC-3 cells, MSD

Sequence of PDK1 (O15530 51-359): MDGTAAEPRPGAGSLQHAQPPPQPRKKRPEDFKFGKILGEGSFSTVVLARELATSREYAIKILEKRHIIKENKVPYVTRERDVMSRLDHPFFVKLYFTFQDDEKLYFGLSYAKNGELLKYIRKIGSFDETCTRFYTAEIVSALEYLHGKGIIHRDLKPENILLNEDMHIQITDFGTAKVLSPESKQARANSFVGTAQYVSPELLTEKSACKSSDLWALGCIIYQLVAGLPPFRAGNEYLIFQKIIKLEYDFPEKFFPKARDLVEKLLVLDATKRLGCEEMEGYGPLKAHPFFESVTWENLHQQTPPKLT

Which IC50 (PDK1; [2]) does the source give for `CNC(=O)c1ncnc2ccc(-c3ccc(CNc4ncccc4C(=O)N[C@@H](C)c4ccc(F)c(F)c4)s3)cc12` [Example 4.25, (S)-6-(5-((3-(1-(3,4-difluorophenyl)ethyl-carbamoyl)pyridin-2-ylamino)methyl)thiophen-2-yl)-N-methylquinazoline-4-carboxamide] here?
Its IC50 is over 5000 nM.

And the EC50 [1, 3]?
The EC50 was over 10000 nM.

`CNC(=O)c1cc(-c2ccc(CNc3ncc(C#N)cc3C(=O)N[C@@H](C)c3ccc(F)cc3)cc2)cnc1N` [Example 203, (S)-2-amino-5-(4-((5-cyano-3-(1-(4-fluorophenyl)ethylcarbamoyl)pyridin-2-ylamino)methyl)phenyl)-N-methylnicotinamide] was tested. Which IC50 (PDK1; inhibition of PDK1 in vitro) did it give?
Its IC50 is under 100 nM.

And the EC50 [1, 4]?
The EC50 was under 1000 nM.

With `Nc1n[nH]c2ncc(-c3ccc(CNc4ncc(C(F)(F)F)cc4C(=O)N4CCc5cc(F)ccc54)cc3)cc12` [Example 30, (2-(4-(3-amino-1H-pyrazolo[3,4-b]pyridin-5-yl)benzylamino)-5-(trifluoromethyl)pyridin-3-yl)(5-fluoroindolin-1-yl)methanone] as the compound, how does the IC50 (PDK1; [2]) read?
The IC50 was under 100 nM.

And the EC50 [1, 3]?
The EC50 was under 1000 nM.

Which results are given for `CN(C)CC(=O)Nc1cnc(NCc2ccc(-c3ccc4ncnc(N)c4c3)s2)c(C(=O)NCc2ccc(F)c(F)c2)c1` [Example 8.5.8, 2-({[5-(4-aminoquinazolin-6-yl)thiophen-2-yl]methyl}amino)-N-(3,4-difluorobenzyl)-5-[(N,N-dimethylglycyl)amino] pyridine-3-carboxamide]?
IC50 (PDK1; [2]): 100 to 1000 nM; EC50 [1, 3]: 1000 to 10000 nM

How did the IC50 (PDK1; [2]) turn out when `C[C@H](NC(=O)c1cccnc1N[C@@H](COc1ccc2[nH]c(=O)[nH]c2c1)c1cccc(Cl)c1)c1ccc(F)c(F)c1` [Example 16.9, 2-((R)-1-(3-chlorophenyl)-2-(2-oxo-2,3-dihydro-1H-benzo[d]imidazol-5-yloxy)ethylamino)-N-((S)-1-(3,4-difluorophenyl)ethyl)nicotinamide] was run?
The IC50 was 100 to 1000 nM.

What about the EC50 [1, 3] of the same compound?
The EC50 was under 1000 nM.

How did the IC50 (PDK1; inhibition of PDK1 in vitro) turn out when `C[C@H](NC(=O)c1nccnc1NCc1ccc(-c2ccc(N)nc2)cc1)c1ccc(F)cc1` [Example 371, (S)-3-(4-(6-aminopyridin-3-yl)benzylamino)-N-(1-(4-fluorophenyl)ethyl)pyrazine-2-carboxamide] was run?
Its IC50 is under 100 nM.

And the EC50 [1, 4]?
The EC50 was over 10000 nM.

What does the source list for `C[C@H](NC(=O)c1cc(C#N)cnc1NCc1ccc(-c2cnc(N)c(C(=O)NCC(O)CO)c2)cc1)c1ccc(F)cc1` (some centres unmarked) [Example 206]?
IC50 (PDK1; inhibition of PDK1 in vitro): < 100 nM; EC50 [1, 4]: 1000 to 10000 nM

`Nc1ncnc2ccc(-c3ccc(CNc4ncccc4C(=O)Nc4ccc(C(F)(F)F)cc4)s3)cc12` [Example 3.26, 2-({[5-(4-aminoquinazolin-6-yl)thiophen-2-yl]methyl}amino)-N-[4-(trifluoromethyl)phenyl] pyridine-3-carboxamide (TFA salt)] was tested. Which IC50 (PDK1; [2]) did it give?
The IC50 was over 5000 nM.

And the EC50 [1, 3]?
Its EC50 is over 10000 nM.

What does the source list for `Nc1n[nH]c2ncc(-c3ccc(CNc4ncc(C(F)(F)F)cc4C(=O)NCc4ccc(F)c(Cl)c4)cc3)cc12` [Example 286]?
IC50 (PDK1; inhibition of PDK1 in vitro): < 100 nM; EC50 [1, 4]: < 1000 nM

What does the source list for `C[C@H](NC(=O)c1cc(C#N)cnc1NCc1ccc(-c2cnc3[nH]nc(N)c3c2)cc1)c1ccc(F)cc1` [Example 122, (S)-2-(4-(3-amino-1H-pyrazolo[3,4-b]pyridin-5-yl)benzylamino)-5-cyano-N-(1-(4-fluorophenyl)ethyl) nicotinamide]?
IC50 (PDK1; inhibition of PDK1 in vitro): < 100 nM; EC50 [1, 4]: < 1000 nM

`Nc1cnc(-c2ccc(CNc3ncc(C(F)(F)F)cc3C(=O)NCc3ccc(F)cc3)cc2)cn1` [Example 383, 2-(4-(5-aminopyrazin-2-yl)benzylamino)-N-(4-fluorobenzyl)-5-(trifluoromethyl)nicotinamide] was tested. Which IC50 (PDK1; inhibition of PDK1 in vitro) did it give?
The IC50 was under 100 nM.

What about the EC50 [1, 4] of the same compound?
Its EC50 is under 1000 nM.

For `C[C@H](NC(=O)c1cc(C#N)cnc1NCc1ccc(-c2cnc3c(c2)CCN3)cc1)c1ccc(F)cc1` [Example 139, (S)-5-cyano-2-(4-(3,4-dihydro-1H-pyrrolo [2,3-b]pyridin-5-yl)benzylamino)-N-(1-(4-fluorophenyl)ethyl) nicotinamide], which IC50 (PDK1; inhibition of PDK1 in vitro) is on record?
The IC50 was under 100 nM.

And the EC50 [1, 4]?
The EC50 was under 1000 nM.

Which results are given for `C[C@H](NC(=O)c1cc(C(F)(F)F)cnc1NCc1ccc(-c2cc3c(N)ncnc3cn2)s1)c1ccc(F)cc1` [Example 8.12.7, 2-({[5-(4-aminopyrido [3,4-d]pyrimidin-6-yl)thiophen-2-yl]methyl}amino)-N-[(1S)-1-(4-fluorophenyl)ethyl]-5-(trifluoromethyl) pyridine-3-carboxamide]?
IC50 (PDK1; [2]): 100 to 1000 nM; EC50 [1, 3]: < 1000 nM

Which IC50 (PDK1; [2]) does the source give for `CN1CCN(S(=O)(=O)c2cnc(NCc3ccc(-c4ccc5ncnc(N)c5c4)s3)c(C(=O)NCc3ccc(F)c(F)c3)c2)CC1` [Example 8.6.10, 2-(((5-(4-aminoquinazolin-6-yl)thiophen-2-yl)methyl)amino)-N-(3,4-difluorobenzyl)-5-(4-methylpiperazin-1-ylsulfonyl)nicotinamide] here?
The IC50 was 100 to 1000 nM.

What about the EC50 [1, 5] of the same compound?
Its EC50 is 1000 to 10000 nM.

`C[C@H](NC(=O)c1cc(C#N)cnc1NCc1ccc(-c2ccn3ncnc(N)c23)cc1)c1ccc(F)cc1` [Example 174, 2-[4-(4-Amino-pyrrolo[2,1-f][1,2,4]triazin-5-yl)-benzylamino]-5-cyano-N-[(S)-1-(4-fluoro-phenyl)-ethyl]-nicotinamide] was tested. Which IC50 (PDK1; inhibition of PDK1 in vitro) did it give?
Its IC50 is under 100 nM.

What about the EC50 [1, 4] of the same compound?
The EC50 was under 1000 nM.

Which IC50 (PDK1; [2]) does the source give for `CNC(=O)c1cccnc1NCc1cccc(-c2c[nH]c3ncccc23)c1` [Example 1.15, N-methyl-2-{[3-(1H-pyrrolo [2,3-b]pyridin-3-yl)benzyl]amino}pyridine-3-carboxamide] here?
The IC50 was over 5000 nM.

And the EC50 [1, 3]?
Its EC50 is over 10000 nM.

Which results are given for `CCc1nc(C)c(/C=C2\C(=O)Nc3cc(/C=C/CNc4ncccc4C(=O)NCc4ccc(F)c(F)c4)ccc32)[nH]1` [Example 15.11, N-(3,4-Difluoro-benzyl)-2-((E)-3-{3-[1-(2-ethyl-5-methyl-3H-imidazol-4-yl)-meth-(Z)-ylidene]-2-oxo-2,3-dihydro-1H-indol-6-yl}-allylamino)-nicotinamide]?
IC50 (PDK1; [2]): < 100 nM; EC50 [1, 3]: < 1000 nM

Which IC50 (PDK1; inhibition of PDK1 in vitro) does the source give for `CC(C)Oc1cc(CNc2ncccc2C(=O)NCc2ccc(F)c(F)c2)cc(-c2c[nH]c3ncc(-c4ccc[nH]4)cc23)c1` [Example 335, 2-(3-(5-(1H-pyrrol-2-yl)-1H-pyrrolo[2,3-b]pyridin-3-yl)-5-isopropoxybenzylamino)-N-(3,4-difluorobenzyl) nicotinamide] here?
The IC50 was under 100 nM.

What about the EC50 [1, 4] of the same compound?
The EC50 was over 10000 nM.

Which results are given for `Cc1ccc(CNC(=O)c2cccnc2NCc2ccc(-c3ccc4ncnc(N)c4c3)s2)o1` [Example 3.17, 2-({[5-(4-aminoquinazolin-6-yl)thiophen-2-yl]methyl}amino)-N-[(5-methylfuran-2-yl)methyl] pyridine-3-carboxamide (TFA salt)]?
IC50 (PDK1; [2]): 100 to 1000 nM; EC50 [1, 5]: > 10000 nM

With `C[C@H](NC(=O)c1cccnc1NCc1ccc(-c2ccc3ncc(N)nc3c2)s1)c1ccc(F)c(F)c1` [Example 4.30, (S)-2-(((5-(3-aminoquinoxalin-6-yl)thiophen-2-yl)methyl)amino)-N-(1-(3,4-difluorophenyl)ethyl) nicotinamide] as the compound, how does the IC50 (PDK1; [2]) read?
The IC50 was 100 to 1000 nM.

What about the EC50 [1, 5] of the same compound?
Its EC50 is 1000 to 10000 nM.

Which IC50 (PDK1; inhibition of PDK1 in vitro) does the source give for `Nc1n[nH]c2ncc(-c3ccc(CNc4ncc(C(F)(F)F)cc4C(=O)N[C@H](CO)c4ccc(F)cc4)cc3)cc12` [Example 266] here?
Its IC50 is 100 to 1000 nM.

What about the EC50 [1, 4] of the same compound?
The EC50 was over 10000 nM.

With `C[C@H](NC(=O)c1cc(C#N)cnc1NCc1ccc(-c2cnc(N)c(C(=O)NCCCO)n2)cc1)c1ccc(F)cc1` [Example 209, (S)-3-amino-6-(4-((5-cyano-3-(1-(4-fluorophenyl)ethylcarbamoyl)pyridin-2-ylamino)methyl)phenyl)-N-(3-hydroxypropyl) pyrazine-2-carboxamide] as the compound, how does the IC50 (PDK1; inhibition of PDK1 in vitro) read?
The IC50 was under 100 nM.

And the EC50 ([1]; inhibition of P308 Akt in PC-3 cells using MSD)?
The EC50 was under 1000 nM.
